Assay results as given in US20240180888A1, “C5AR1 INHIBITORS FOR TREATING […] REACTIONS TO TAXANES” (Dompe' Farmaceutici SPA, priority 2021, published 2024).
Read-outs that look alike come from different tables or passages of the source.

B1: C5a: anaphylatoxin, pro-inflammatory polypeptide, the natural ligand of the receptor C5aR1 (protein, UniProt P01031 678-751, looked up)
C5a anaphylatoxin: TLQKKIEEIAAKYKHSVVKKCCYDGACVNNDETCEQRAARISLGPRCIKAFTECCVVASQLRANISHKDMQLGR
modifications: C5a anaphylatoxin
notes: anaphylatoxin, pro-inflammatory polypeptide, the natural ligand of the receptor C5aR1

Experiments:
[1] = biological target: T1, complement component 5a receptor 1 (C5aR1) (Homo sapiens, UniProt P21730); assay: BIAcore SPR binding to C5aR1 immobilised on sensorchip CM5 via c-Myc-tag
T1 construct: purchased OriGene TP303784
T1 sequence (P21730 1-350): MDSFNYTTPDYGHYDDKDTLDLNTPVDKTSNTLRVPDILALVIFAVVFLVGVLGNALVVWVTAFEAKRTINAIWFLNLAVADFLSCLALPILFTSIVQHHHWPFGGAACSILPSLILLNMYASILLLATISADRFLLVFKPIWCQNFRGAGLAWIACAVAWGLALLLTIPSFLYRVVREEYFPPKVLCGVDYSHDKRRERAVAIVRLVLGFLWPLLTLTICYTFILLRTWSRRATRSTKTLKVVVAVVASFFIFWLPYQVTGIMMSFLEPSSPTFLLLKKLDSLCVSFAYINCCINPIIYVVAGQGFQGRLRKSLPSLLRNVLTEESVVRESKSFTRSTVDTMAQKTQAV
Description: (§1) BIAcore technology was used to analyze the interaction between Paclitaxel and complement component 5a receptor 1 (C5aR1) (Example 1), complement component 5a receptor 2 (C5AR2) (Example 2) or complement component 5a (Example 3).
(§2) The BIAcore systems exploit the phenomenon of Surface Plasmon Resonance (SPR) to monitor interactions between molecules in real time. Briefly, SPR phenomenon occurs in thin conducting films at an interface between media of different refractive index. In BIAcore systems, the media are the glass of the sensorchip and the sample solution, and the conducting film is a thin layer of gold on the sensorchip surface. BIAcore monitors the interaction between two molecules, one attached to the sensor surface, called ligand, and the other one free in solution, and called analyte.
An anti-c-Myc antibody (9E10, sc-40, Santa Cruz Technology) was immobilized on a sensorchip CM5 (#29149604, Cytiva). In details, the antibody was diluted at a concentration of 50 μg/ml in 10 mM acetate buffer at pH 4.5, and injected over the surface of the sensorchip. In details, the dextran matrix on the sensorchip surface was first activated with a mixture of […] (EDC) and N-hydroxysuccinimide (NHS) to give reactive succinimide esters. Anti-Myc antibodies were then passed over the surface and the esters reacted spontaneously with uncharged amino groups to covalently link the ligand to the dextran. Then, the surface was deactivated by ethanolamine-HCl.
Once the antibody was immobilized, the receptor was captured on the surface of the sensorchip. This procedure allowed the immobilization of the ligand of interest in an oriented way. In particular, C5AR1-cMyc (TP303784, OriGene) at a concentration of 20 μg/ml in Running Buffer (50 mM HEPES buffer, pH 7.0 containing 0.01% CHS, 0.1% CHAPS, and 0.33 mM of lipids) was injected onto the sensorchip prepared above with a flow rate of 5 μI/min.
In details, 5 μM C5a (A144, Complement Technologies) in Running Buffer was injected on C5aR1 surface of sensorchip prepared in Example 1a).
To first evaluate a direct binding of Paclitaxel and C5aR1, the compound was injected on the C5aR1 surface of the sensorchip prepared in Example 1a) at a concentration of 300 μM in Running Buffer.
Running Buffer at different concentrations (from 4.06 to 37.5 μM), injected on the sensorchip for 4 minutes and allowed to dissociate for 5 minutes, flowing Running Buffer without Paclitaxel. In this way, the kinetic constant was evaluated as a function of time.
Also, the affinity value at equilibrium of Paclitaxel/Myc-05aR1 interaction was determined by measuring the steady-state binding levels, through a Scatchard analysis of the RU values at equilibrium.

[2] = biological target: T2, complement component 5a receptor 2 (C5AR2) (Homo sapiens, UniProt Q9P296); assay: BIAcore SPR binding to C5aR2 immobilised on sensorchip CM5 via His-tag
T2 construct: purchased CUSABIO CSB-CF868390HU
Description: as §1, §2
A policlonal anti-His antibody (ab137839, Abcam) was immobilized on a sensorchip CM5 (#29149604, Cytiva). In details, the antibody was diluted at a concentration of 50 μg/ml in 10 mM acetate buffer at pH 4.0, and injected over the surface of the sensorchip. Activation and deactivation of sensorchip were performed as described in Example 1a). […] Once the antibody was immobilized, the receptor was captured in an oriented way on the surface of the sensorchip. In particular, C5AR2-His (CSB-CF868390HU, CUSABIO) at a concentration of 100 μg/ml was injected onto the sensorchip with a flow rate of 5 microl/min in Running Buffer.
5 μM C5a (A144, Complement Technologies) was injected on C5AR2 surface of the sensorchip prepared in Example 2a).
Paclitaxel was injected on the C5aR2 surface of the sensorchip prepared in Example 2a) at different concentrations (10, 100 and 200 microM) in Running Buffer, and the amount of obtained RU was evaluated.

[3] = tested on: human (THP-1) macrophages; assay: Proteome profiler cytokine release assay in human macrophages; assay type: cell-based; details: human; 10 nM, 24 h
Method: After 24 hours, cells were treated with C5a (diluted in medium) (10 nM, R&D, USA), Paclitaxel (diluted in medium) (10 nM, Sigma, USA) in the absence and in the presence of the C5a inhibitor DF3966A (10 μM), and anti C5aR Ab (BioLegend, CA, USA; 50 nM) or Avacopan (10 μM) for 24 hours, then the media was replaced with culture media (5 ml) for 24 h and then collected.
Conditioned media were centrifugated to remove particulates and assayed immediately. […] The reagents were prepared following manufacturer's protocols (R&D, USA). Briefly, the membranes were incubated with Array Buffer 6 for 1 hour on a rocking platform shaker. The samples were prepared by adding up to 1 ml of Array Buffer 4 in two separated tubes and then 15 microl of reconstituted mouse cytokine detection antibody cocktail (>40 mouse cytokines) to each prepared sample and incubated 1 hour. Then, the Array Buffer 6 was aspirated and replaced with the sample/antibody mixtures and incubated at 4° C. overnight. The following day, membranes were washed 3 times and Streptavidin-HRP (1:2000) was incubated for 30 minutes at room temperature on a rocking platform shaker. The membranes were washed again, and 1 ml of prepared Chemi Reagent mix was placed onto each membrane. Multiple exposure times were acquired using UVITEC digital analyzer (Alliance, Cambridge, UK).
The positive signals seen in the developed membranes can be identified by placing the transparency overlay template on the array image and aligning it with pairs of reference spots in the three corners of each array (see FIG. 10). […] Pixel densities (average signals of pair of duplicates which represent each cytokine) were analyzed by ImageJ and the average background was subtracted from each spot.
In details, the profiling of cytokines released (>40 cytokines) from RAW 264.7 and human macrophages challenged with paclitaxel (Sigma-Aldrich; 10 nM) or C5a (R&D Systems, Inc. MN, USA; 10 nM) for 24 h using a proteome profiler assay. […] The experimental assay is explained in example 4.
For the human macrophages, human XL Cytokine Array kit #Ary022B was used, while for murine macrophages mouse cytokine Array Panel A #Ary006 was used (R&D systems, USA).

T2 sequence (Q9P296 whole entry): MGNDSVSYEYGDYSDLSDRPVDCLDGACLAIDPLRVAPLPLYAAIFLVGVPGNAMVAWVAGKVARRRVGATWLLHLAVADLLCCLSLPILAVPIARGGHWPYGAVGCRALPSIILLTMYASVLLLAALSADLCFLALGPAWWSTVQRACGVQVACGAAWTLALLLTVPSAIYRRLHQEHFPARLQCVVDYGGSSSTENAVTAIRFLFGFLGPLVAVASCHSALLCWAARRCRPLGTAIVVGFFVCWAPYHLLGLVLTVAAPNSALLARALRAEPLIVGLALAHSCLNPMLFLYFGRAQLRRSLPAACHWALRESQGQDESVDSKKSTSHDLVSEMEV

Row | Molecule | Paclitaxel bound to immobilised C5aR1, resonance units ([1]; 300 μM in Running Buffer) | Kd ([1]; 4.06 to 37.5 μM, 4 minutes injection, 5 minutes dissociation, read-out: Kd value (kinetic evaluation)) | Kd ([1]; steady-state RU as a function of analyte concentration, read-out: affinity constant at equilibrium (steady-state binding levels, Scatchard analysis)) | binding to immobilised C5aR2 ([2]; 10, 100 and 200 microM in Running Buffer) | binding to immobilised C5aR2 (legend of FIG. 8) ([2]; from 4.06 μM to 37.5 μM) | proteome profile of cytokines released [3] | binding to immobilised C5aR1 ([1]; 5 μM in Running Buffer) | binding to immobilised C5aR2 ([2]; 5 μM)
1 | CC(=O)O[C@H]1C(=O)[C@@]2(C)[C@H]([C@H](OC(=O)c3ccccc3)[C@]3(O)C[C@H](OC(=O)[C@H](O)[C@@H](NC(=O)c4ccccc4)c4ccccc4)C(C)=C1C3(C)C)[C@]1(OC(C)=O)CO[C@@H]1C[C@@H]2O [Paclitaxel] | 300 RU | 670 nM | 525 nM | not able to bind | not able to bind | resembled that of typical anaphylaxis | – | –
2 | B1 | – | – | – | – | – | resembled that of typical anaphylaxis | can bind | is able to bind
